The assay deals with Dogs with Lymphoma. Nature of the assay: Efficacy Study for Treatment of Dogs with Lymphoma. The settings on record: treatment received population of dogs. The class given is in vivo. The protocol: Twenty-five (25) dogs of varying sex, weight, breed and age (5.5-14.0 yrs) were entered for the study. […] All dogs entered for study had received prior chemotherapy and enrolled to the study following disease relapse.
All dogs were treated with N-[2-[(4-HYDROXYPHENYL)AMINO]-3-PYRIDYL]-4-METHOXYBENZENESULFONAMIDE at an initial dose of 350 mg/m2 PO QD for 7 days then treated at 350 mg/m2 EOD×21 days. If no significant objective response or doselimiting toxicities were noted after 28 days on therapy, a QD regimen was restarted for 7 days. Otherwise, dogs continued on EOD dosing until study discontinuation.
All dogs were treated with ABT-510 at a dose of 1 mg/kg SQ divided BID starting 24 hours after the first dose of N-[2-[(4-HYDROXYPHENYL)AMINO]-3-PYRIDYL]-4-METHOXYBENZENESULFONAMIDE was administered.
Dogs treated with N-[2-[(4-HYDROXYPHENYL)AMINO]-3-PYRIDYL]-4-METHOXYBENZENESULFONAMIDE and ABT-510 therapy were evaluated at Day 0, Day 7, Day 28 then every 28 days thereafter. Assessment of tumor burden was made based on measurement of target lymph nodes (no more than 3 nodes/animal). The lymph node volume (I×w×h) was calculated for each target lymph node and assessed as a sum of total tumor burden. Standard response endpoints were evaluated based on the criteria below: • Complete response (CR) is defined as disappearance of all clinical evidence of cancer and of any signs related to the cancer. • Partial response (PR) is defined as a 50% or greater decrease in the sum of the products of measurements for representative lesions, without an increase in size of any lesions or appearance of any new lesions. • Minimal response (MR) is defined as a 25% or greater decrease in the sum of the products of measurements for representative lesions, without an increase in size of any lesions or appearance of any new lesions. • Stable disease is defined as no response or a response of less than that defined for partial response or progressive disease without appearance of any new lesions or worsening of clinical signs. • Progressive disease is defined as an unequivocal increase of at least 50% in the size of any measurable lesion or appearance of new lesions.
The Intent-to-Treat population included all 25 dogs enrolled in the study. Five (5) dogs withdrew from the study early due to their inability to receive N-[2-[(4-HYDROXYPHENYL)AMINO]-3-PYRIDYL]-4-METHOXYBENZENESULFONAMIDE and ABT-510 longer than 7 days. Four (4) of these dogs withdrew due to rapid lymphoma progression. One (1) dog withdrew due to owner decision related to side effects while receiving study agents.
The Treatment Received population included dogs who received N-[2-[(4-HYDROXYPHENYL)AMINO]-3-PYRIDYL]-4-METHOXYBENZENESULFONAMIDE and ABT-510 therapy for longer than 7 days. […]

As for `COc1ccc(S(=O)(=O)Nc2cccnc2Nc2ccc(O)cc2)cc1` [Single Agent, N-[2-[(4-HYDROXYPHENYL)AMINO]-3-PYRIDYL]-4-METHOXYBENZENESULFONAMIDE], where the note is “mean”, the “Response Duration, Mean” value is listed as “Mean = 65 days” and the “Time to Progression, Mean” value is “Mean = 21 days”. Under “median”, the “Response Duration, Median” value is listed as “Median = 24 days” and the “Time to Progression, Median” value is on record as “Median = 18 days”.

These data come from US20080027008A1, “Antitumorigenic Drug Combination” (priority 2006, published 2008).
